Legend:
Type in all cases: biochemical, human
[1] = test system: receptor tyrosine kinase present in a cell membrane of SKBr3; experiment: Influence of ligand on kinase activity of receptor tyrosine kinase, GST-poly (Glu,Tyr) substrate, Western blotting; conditions: reaction solution containing 100 ng of Heregulin (H) vs no ligand (C); SKBr3 membrane sample; FIG. 11
Protocol: A culturing cell (MDA-MB231) derived from a breast cancer was cultured to 80% confluent (about 10^7 cells) in a 225 cm^2 flask. This cultured cell and 1 ml of a cell treating solution (containing 20 mM HEPES pH7.4, 0.2% PI, 10% glycerol, 200 μM Na3VO4, and 50 mM NaF) were mixed, and a cell membrane was destructed by pressurizing using a pestle to prepare a cell solution. The resulting cell solution was centrifuged, and the supernatant was discarded. A precipitate and a cell membrane solubilizing solution (containing 20 mM HEPES pH7.4, 1% NP40, 0.2% PI, 10% glycerol, 200 μM Na3VO4, and 50 mM NaF) were mixed, a cell membrane was solubilized by pressurizing using a pestle, and this was centrifuged to recover the supernatant. This supernatant was used as a sample for a reaction in the following enzyme reaction. Similarly, a sample for a reaction solution was prepared from MDA-MB468 and SKBr3 which are a cultured cell derived from a breast cancer, respectively. […]
Using these “H” and “C”, Western blotting was performed according to the same method as that of Example 6. And, a fluorescent intensity of a band of a phosphorylated GST-poly (Glu,Tyr) fused protein detected in a fluorescent photograph was digitalized using an exclusive use analyzing software. […]

[2] = test system: receptor tyrosine kinase present in a cell membrane of MDA-MB468; experiment: Influence of inhibitor on kinase activity of receptor tyrosine kinase, GST-poly (Glu,Tyr) substrate, Western blotting, sample ii; conditions: reaction solution containing 100 μM inhibitor, C (no inhibitor) = 100%, FIG. 9
Protocol: (§1) A culturing cell (MDA-MB231) derived from a breast cancer was cultured to 80% confluent (about 10^7 cells) in a 225 cm^2 flask. This cultured cell and 1 ml of a cell treating solution (containing 20 mM HEPES pH7.4, 0.2% PI, 10% glycerol, 200 μM Na3VO4, and 50 mM NaF) were mixed, and a cell membrane was destructed by pressurizing using a pestle to prepare a cell solution. The resulting cell solution was centrifuged, and the supernatant was discarded. A precipitate and a cell membrane solubilizing solution (containing 20 mM HEPES pH7.4, 1% NP40, 0.2% PI, 10% glycerol, 200 μM Na3VO4, and 50 mM NaF) were mixed, a cell membrane was solubilized by pressurizing using a pestle, and this was centrifuged to recover the supernatant. This supernatant was used as a sample for a reaction in the following enzyme reaction. Similarly, a sample for a reaction solution was prepared from MDA-MB468 and SKBr3 which are a cultured cell derived from a breast cancer, respectively. Herein, a sample prepared from MDA-MB231 is designated as a sample for reaction “i”, a sample prepared from MDA-MB468 is designated as a sample for reaction “ii”, and a sample prepared from SKBr3 is designated as a sample for reaction “iii”. All samples for a reaction were prepared so that a concentration of a contained protein became 0.8 mg/ml.
(§2) Each 25μ of samples for a reaction were accommodated in four tubes. […]
(§3) Using these “PD”, “W”, “AG” and “C”, Western blotting was performed according to the same method as that of Example 6. Results are shown by a graph in which a fluorescent intensity of a band of a phosphorylated GST-poly (Glu,Tyr) fused protein detected in a fluorescent photograph of Western blotting was digitalized using an exclusive use analyzing software. […]

[3] = test system: receptor tyrosine kinase present in a cell membrane of MDA-MB231; experiment: Influence of inhibitor on kinase activity of receptor tyrosine kinase, GST-poly (Glu,Tyr) substrate, Western blotting, sample i; conditions: reaction solution containing 100 μM inhibitor, C (no inhibitor) = 100%, FIG. 8
Protocol: as §1, §2, §3

[4] = test system: receptor tyrosine kinase present in a cell membrane of SKBr3; experiment: Influence of inhibitor on kinase activity of receptor tyrosine kinase, GST-poly (Glu,Tyr) substrate, Western blotting, sample iii; conditions: reaction solution containing 100 μM inhibitor, C (no inhibitor) = 100%, FIG. 10
Protocol: as §1, §2, §3

Compound	fluorescent intensity of band of phosphorylated GST-poly (Glu,Tyr) fused protein compared with C [1]	fluorescent intensity of band of phosphorylated GST-poly (Glu,Tyr) fused protein compared with C [2]	fluorescent intensity of band of phosphorylated GST-poly (Glu,Tyr) fused protein compared with C [3]	fluorescent intensity of band of phosphorylated GST-poly (Glu,Tyr) fused protein compared with C [4]
Heregulin	higher			
COc1cc2ncnc(Nc3cccc(Cl)c3)c2cc1OC [AG1478]		reduced	not inhibited	reduced
CNc1cc2c(Nc3cccc(Br)c3)ncnc2cn1 [PD158780]		reduced	not inhibited	reduced
COc1cc2ncnc(Nc3ccc(OCc4ccccc4)cc3)c2cc1OC [W4557]		reduced	not inhibited	reduced

— US20070238141A1, “Method for measuring kinase activity” (SYSMEX CORPORATION, priority 2006, published 2007)
